Patent US8501936B2 (priority 2009, dated 2013)

Key:
[1] = target: human FAK (Homo sapiens (Human), UniProt Q05397); conditions: read-out: FAK IC50
[2] = target: human JAK2 (Homo sapiens (Human), UniProt O60674); conditions: read-out: JAK2 IC50
Chain of human JAK2 (O60674 815-1132): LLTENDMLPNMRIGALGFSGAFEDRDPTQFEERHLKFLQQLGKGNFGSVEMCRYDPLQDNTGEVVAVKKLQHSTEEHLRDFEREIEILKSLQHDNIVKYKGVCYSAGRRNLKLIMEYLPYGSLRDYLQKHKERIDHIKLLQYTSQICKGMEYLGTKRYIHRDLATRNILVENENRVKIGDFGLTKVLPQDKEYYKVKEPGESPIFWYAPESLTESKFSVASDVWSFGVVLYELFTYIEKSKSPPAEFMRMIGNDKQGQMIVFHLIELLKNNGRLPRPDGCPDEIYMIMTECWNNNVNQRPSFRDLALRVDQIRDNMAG

Chain of human FAK (Q05397 whole entry): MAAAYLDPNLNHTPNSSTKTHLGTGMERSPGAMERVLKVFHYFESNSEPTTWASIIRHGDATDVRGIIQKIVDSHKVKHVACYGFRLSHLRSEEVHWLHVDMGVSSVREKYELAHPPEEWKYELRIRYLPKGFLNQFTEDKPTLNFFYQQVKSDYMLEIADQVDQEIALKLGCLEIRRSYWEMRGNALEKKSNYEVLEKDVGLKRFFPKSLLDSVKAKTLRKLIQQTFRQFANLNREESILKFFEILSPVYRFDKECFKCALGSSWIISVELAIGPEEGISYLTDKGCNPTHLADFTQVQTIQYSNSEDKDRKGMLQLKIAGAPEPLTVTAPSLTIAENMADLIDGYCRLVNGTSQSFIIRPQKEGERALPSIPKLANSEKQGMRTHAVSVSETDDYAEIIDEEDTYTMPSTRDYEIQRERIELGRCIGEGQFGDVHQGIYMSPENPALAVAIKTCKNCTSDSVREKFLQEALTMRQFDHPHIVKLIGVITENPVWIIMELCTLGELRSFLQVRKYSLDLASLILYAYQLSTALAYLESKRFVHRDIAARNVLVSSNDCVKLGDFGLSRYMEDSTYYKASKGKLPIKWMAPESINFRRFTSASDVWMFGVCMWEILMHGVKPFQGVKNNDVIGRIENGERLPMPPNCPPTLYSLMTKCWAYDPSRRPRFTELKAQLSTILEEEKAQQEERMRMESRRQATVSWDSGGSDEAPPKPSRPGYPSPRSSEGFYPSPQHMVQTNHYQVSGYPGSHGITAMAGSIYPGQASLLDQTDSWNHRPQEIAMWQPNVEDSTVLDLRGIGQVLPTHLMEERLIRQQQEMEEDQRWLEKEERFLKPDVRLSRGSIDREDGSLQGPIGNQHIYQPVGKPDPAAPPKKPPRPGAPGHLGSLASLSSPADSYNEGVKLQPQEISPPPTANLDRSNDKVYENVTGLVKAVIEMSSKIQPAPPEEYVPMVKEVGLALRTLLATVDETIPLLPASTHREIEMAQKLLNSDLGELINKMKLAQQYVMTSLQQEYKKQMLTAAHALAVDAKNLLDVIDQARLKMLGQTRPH

| Structure (SMILES) | IC50 [1] [nM] | IC50 [2] [nM] |
| --- | --- | --- |
| COc1ccc(Nc2nc3cccc(-c4ccc(CN5CCS(=O)(=O)CC5)cc4)n3n2)cc1 [Example 95, 5-{4-[(1,1-dioxidothiomorpholin-4-yl)methyl]phenyl}-N-(4-methoxyphenyl)[1,2,4]triazolo[1,5-a]pyridin-2-amine] | 2000 | 1 |
| COc1ccccc1-c1cccn2nc(Nc3ccc(N4CCOCC4)cc3)nc12 [Example 2, [8-(2-Methoxy-phenyl)-[1,2,4]triazolo[1,5-a]pyridin-2-yl]-(4-morpholin-4-yl-phenyl)-amine] | 6500 | 20 |
| CS(=O)(=O)c1ccc(-c2cccn3nc(Nc4ccc(CN5CCOCC5)cc4)nc23)cc1 [Example 43, [8-(4-Methanesulfonyl-phenyl)-[1,2,4]triazolo[1,5-a]pyridin-2-yl]-(4-morpholin-4-ylmethyl-phenyl)-amine] | 1170 | 2.2 |
| COc1ccc(C(F)(F)F)cc1-c1cccn2nc(Nc3cccc(N4CCN(C)CC4)c3)nc12 [Example 255, [8-(2-Methoxy-5-trifluoromethyl-phenyl)-[1,2,4]triazolo[1,5-a]pyridin-2-yl]-[3-(4-methyl-piperazine-1-yl)-phenyl]-amine] | 1220 | 158 |
| CN1CCN(c2cncc(Nc3nc4c(-c5ccc(S(C)(=O)=O)cc5)cccn4n3)n2)CC1 [Example 386, [8-(4-Methanesulfonyl-phenyl)-[1,2,4]triazolo[1,5-a]pyridin-2-yl]-(4-methyl-3,4,5,6-tetrahydro-2H-[1,2′]bipyrazinyl-6′-yl)-amine] | 10000 | 29.9 |
| CN1CCN(c2cccc(Nc3nc4cccc(-c5ccc(S(C)(=O)=O)cc5)n4n3)c2)CC1 [Example 92, [5-(4-Methanesulfonyl-phenyl)-[1,2,4]triazolo[1,5-a]pyridin-2-yl]-[3-(4-methyl-piperazin-1-yl)-phenyl]-amine] | 1270 | 2.8 |
| CC(C)(C)OC(=O)N1CCC(n2cc(Nc3nc4c(-c5ccc(S(C)(=O)=O)cc5)cccn4n3)cn2)CC1 [Example 212, 4-{4-[8-(4-Methanesulfonyl-phenyl)-[1,2,4]triazolo[1,5-a]pyridin-2-ylamino]-pyrazol-1-yl}-piperidin-1-carboxylic acid tert-butyl ester] | 3000 | 0.5 |
| CCn1cc(Nc2nc3c(Oc4ccc(S(C)(=O)=O)cc4)cccn3n2)cn1 [Example 211, (1-Ethyl-1H-pyrazol-4-yl)-[8-(4-methanesulfonyl-phenoxy)-[1,2,4]triazolo[1,5-a]pyridin-2-yl]-amine] | 10000 | 1160 |
| CN1CCN(c2cccc(N(c3cccc(N4CCN(C)CC4)c3)c3nc4c(-c5ccc(S(C)(=O)=O)cc5)cc(F)cn4n3)c2)CC1 [Example 105, [6-Fluoro-8-(4-methanesulfonyl-phenyl)-[1,2,4]triazolo[1,5-a]pyridin-2-yl]-bis-[3-(4-methyl-piperazin-1-yl)-phenyl]-amine] | 1050 | 324 |
| CN1CCN(c2ccc(Nc3nc4c(NCc5cccc(S(C)(=O)=O)c5)cccn4n3)cc2)CC1 [Example 160, N(8)-(3-Methanesulfonyl-benzyl)-N(2)-[4-(4-methyl-piperazin-1-yl)-phenyl]-[1,2,4]triazolo[1,5-a]pyridine-2,8-diamine] | 10000 | 262 |
| FC(F)COc1ccc(C(F)F)cc1-c1cccn2nc(Nc3ccc4c(c3)CCNCC4)nc12 [Example 384, {8-[2-(2,2-Difluoro-ethoxy)-5-difluoromethyl-phenyl]-[1,2,4]triazolo[1,5-a]pyridin-2-yl}-(2,3,4,5-tetrahydro-1H-3-benzazepin-7-yl)-amine] | 1080 | 203 |
| COc1ncc(C(F)(F)F)cc1-c1cccn2nc(Nc3ccc(C4CCNCC4)cc3)nc12 [Example 278, [8-(2-Methoxy-5-trifluoromethyl-pyridin-3-yl)-[1,2,4]triazolo[1,5-a]pyridine-2-yl]-(4-piperidine-4-yl-phenyl)-amine] | 10000 | 133 |
| CN(C)C(=O)CN1CCc2ccc(Nc3nc4c(-c5ccccc5OCC(F)F)cccn4n3)cc2CC1 [Example 368, 2-(7-{8-[2-(2,2-Difluoro-ethoxy)-phenyl]-[1,2,4]triazolo[1,5-a]pyridin-2-ylamino}-1,2,4,5-tetrahydro-3-benzazepin-3-yl)-N,N-dimethyl-acetamide] | 2430 | 197 |
| CN1CCC(c2cccc(Nc3nc4c(-c5cccc(N(C)S(C)(=O)=O)c5)cccn4n3)c2)CC1 [Example 129, N-Methyl-N-(3-{2-[3-(1-methyl-piperidin-4-yl)-phenylamino]-[1,2,4]triazolo[1,5-a]pyridin-8-yl}-phenyl)-methanesulfonamide] | 759 | 8.88 |
| CS(=O)(=O)c1ccc(-c2cccn3nc(Nc4cccc(C5CCN(CC(N)=O)CC5)c4)nc23)cc1 [Example 184, 2-(4-{3-[8-(4-Methanesulfonyl-phenyl)-[1,2,4]triazolo[1,5-a]pyridin-2-ylamino]-phenyl}-piperidin-1-yl)-acetamide] | 384 | 0.41 |
| CCN1CCN(c2cccc(Nc3nc4c(-c5ccc(P(C)(C)=O)cc5)cccn4n3)c2)C(=O)C1 [Example 208, 1-(3-{8-[4-(Dimethyl-phosphinoyl)-phenyl]-[1,2,4]triazolo[1,5-a]pyridin-2-ylamino}-phenyl)-4-ethyl-piperazin-2-one] | 10000 | 13.2 |
| c1cc(-c2ccncc2)c2nc(Nc3ccc(N4CCOCC4)cc3)nn2c1 [Example 11, (4-Morpholin-4-yl-phenyl)-(8-pyridin-4-yl-[1,2,4]triazolo[1,5-a]pyridin-2-yl)-amine] | 6500 | 5.5 |
| CN1CCN(c2cccc(Nc3nc4c(NCc5cccnc5N(C)S(C)(=O)=O)cccn4n3)c2)CC1 [Example 136, N-Methyl-N-[3-({2-[3-(4-methyl-piperazin-1-yl)-phenylamino]-[1,2,4]triazolo[1,5-a]pyridin-8-ylamino}-methyl)-pyridin-2-yl]-methanesulfonamide] | 71.1 | 77.2 |
| COc1ccc(F)cc1-c1cccn2nc(Nc3ccc4c(c3)CCN(CC(=O)N(C)C)CC4)nc12 [Example 323, 2-{7-[8-(5-Fluoro-2-methoxy-phenyl)-[1,2,4]triazolo[1,5-a]pyridin-2-ylamino]-1,2,4,5-tetrahydro-3-benzazepin-3-yl}-N,N-dimethyl-acetamide] | 691 | 11.3 |
| CN1CCN(c2ccc(Nc3nc4c(-c5ccc(C(F)(F)F)cc5)cccn4n3)cc2)CC1 [Example 64, [4-(4-Methyl-piperazin-1-yl)-phenyl]-[8-(4-trifluoromethyl-phenyl)-[1,2,4]triazolo[1,5-a]pyridin-2-yl]-amine] | 1250 | 3.1 |
| CS(=O)(=O)c1ccc(-c2cccn3nc(Nc4ccc(OCCN5CCCC5)cc4)nc23)cc1 [Example 10, [8-(4-Methanesulfonyl-phenyl)-[1,2,4]triazolo[1,5-a]pyridin-2-yl]-[4-(2-pyrrolidin-1-yl-ethoxy)-phenyl]-amine] | 206 | 1 |
| CN1CCC(c2cccc(Nc3nc4c(-c5ccccc5N(C)S(C)(=O)=O)cccn4n3)c2)CC1 [Example 130, N-Methyl-N-(2-{2-[3-(1-methyl-piperidin-4-yl)-phenylamino]-[1,2,4]triazolo[1,5-a]pyridin-8-yl}-phenyl)-methanesulfonamide] | 3000 | 1200 |
| CS(=O)(=O)c1ccc(-c2cccn3nc(Nc4ccc(CN5CCS(=O)(=O)CC5)cc4)nc23)cc1 [Example 114, N-{4-[(1,1-dioxidothiomorpholin-4-yl)methyl]phenyl}-8-[4-(methylsulfonyl)phenyl][1,2,4]triazolo[1,5-a]pyridin-2-amine] | 1480 | 0.75 |
| C[C@H](O)CN1CCN(c2cccc(Nc3nc4c(-c5ccc(S(C)(=O)=O)cc5)cccn4n3)c2)CC1 [Example 142, (S)-1-(4-{3-[8-(4-Methanesulfonyl-phenyl)-[1,2,4]triazolo[1,5-a]pyridin-2-ylamino]-phenyl}-piperazin-1-yl)-propan-2-ol] | 935 | 0.75 |
| COc1ccc(C(F)(F)F)cc1-c1cccn2nc(Nc3ccc(OCCN4CCCC4)cc3)nc12 [Example 259, [8-(2-Methoxy-5-trifluoromethyl-phenyl)-[1,2,4]triazolo[1,5-a]pyridin-2-yl]-[4-(2-pyrrolidin-1-yl-ethoxy)-phenyl]-amine] | 3390 | 73.7 |
| COc1cccc(CNc2cccn3nc(Nc4cccc(N5CCN(C)CC5)c4)nc23)c1 [Example 392, N(8)-(3-Methoxy-benzyl)-N(2)-[3-(4-methyl-piperazin-1-yl)-phenyl]-[1,2,4]triazolo[1,5-a]pyridine-2,8-diamine] | 10000 | 3000 |
| CN1CCN(c2cccc(Nc3nc4c(-c5cccc(S(C)(=O)=O)c5)cccn4n3)c2)CC1 [Example 60, [8-(3-Methanesulfonyl-phenyl)-[1,2,4]triazolo[1,5-a]pyridin-2-yl]-[3-(4-methyl-piperazin-1-yl)-phenyl]-amine] | 1260 | 6.4 |
| CN(c1ncccc1CNc1cccn2nc(Nc3ccc(OCCN4CCCC4)cc3)nc12)S(C)(=O)=O [Example 124, N-Methyl-N-[3-({2-[4-(2-pyrrolidin-1-yl-ethoxy)-phenylamino]-[1,2,4]triazolo[1,5-a]pyridin-8-ylamino}-methyl)-pyridin-2-yl]-methanesulfonamide] | 59.7 | 41.2 |
| CCCOc1ccc(Cl)cc1-c1cccn2nc(Nc3ccc4c(c3)CCNCC4)nc12 [Example 307, [8-(5-Chloro-2-propoxy-phenyl]-[1,2,4]triazolo[1,5a]pyridine-2-yl]-(2,3,4,5-tetrahydro-benzo[d]azepin-7-yl)-amine] | 1050 | 828 |
| COc1ccc(C(F)(F)F)cc1-c1cccn2nc(Nc3ccc4c(c3)CCN(CC(=O)N(C)C)CC4)nc12 [Example 317, 2-{7-[8-(2-Methoxy-5-trifluoromethyl-phenyl)-[1,2,4]triazolo[1,5-a]pyridin-2-ylamino]-1,2,4,5-tetrahydro-3-benzazepin-3-yl}-N,N-dimethyl-acetamide] | 2000 | 54.5 |
